# Measurements: PubChem BioAssay (NCI)
#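 Results reflect a 48-hour exposure of cells in 96-well plates to compound at five concentrations. TGI is the concentration that stops growth completely.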
# Assays:
# Assay in all cases: growth of human tumour cells (NCI), 48 h
# [1] = system: HOP-62 NSCLC
# [2] = system: SW-620 colon
# [3] = system: SNB-19 CNS
# [4] = system: HOP-92 NSCLC
# [5] = system: OVCAR-3 ovarian
# [6] = system: U251 CNS
# [7] = system: SNB-75 CNS
# [8] = system: HL-60(TB) leukemia
# [9] = system: NCI-H23 lung
# [10] = system: DU-145 prostate
# [11] = system: LOX IMVI melanoma
# [12] = system: SF-539 CNS
# [13] = system: HCT-116 colon
# [14] = system: UACC-62 melanoma
# [15] = system: SN12C renal
# [16] = system: MALME-3M melanoma
# [17] = system: 786-0 renal
# [18] = system: RXF 393 renal
# [19] = system: UO-31 renal
# [20] = system: HCT-15 colon
# [21] = system: SK-MEL-2 melanoma
# [22] = system: NCI-H460 lung
# [23] = system: SF-268 CNS
# [24] = system: SK-OV-3 ovarian
# [25] = system: CAKI-1 renal
# [26] = system: MOLT-4 leukemia
# [27] = system: COLO 205 colon
# [28] = system: SF-295 CNS
# [29] = system: A549 NSCLC
# [30] = system: OVCAR-4 ovarian
# [31] = system: HCC-2998 colon
# [32] = system: KM12 colon
# [33] = system: HT29 colon
# [34] = system: UACC-257 melanoma
# [35] = system: SR leukemia
# [36] = system: HS 578T breast
# [37] = system: SK-MEL-28 melanoma
# [38] = system: MDA-MB-231 breast
# [39] = system: OVCAR-8 ovarian
# [40] = system: NCI/ADR-RES ovarian
# [41] = system: MDA-N
# [42] = system: TK-10 renal
# [43] = system: MCF7 breast
# [44] = system: CCRF-CEM leukemia
# [45] = system: K-562 leukemia
# [46] = system: IGROV1 ovarian
# [47] = system: ACHN renal
# [48] = system: PC-3 prostate
# [49] = system: NCI-H226 lung
# [50] = system: A498 renal
# [51] = system: T-47D breast
# [52] = system: M14 melanoma
# [53] = system: SK-MEL-5 melanoma
# [54] = system: NCI-H522 lung
# [55] = system: EKVX NSCLC
# [56] = system: RPMI-8226 leukemia
# [57] = system: MDA-MB-435
# [58] = system: OVCAR-5 ovarian
compound,measurement,setting,value
NC(=O)N/N=C\CC(O)(C(F)(F)Cl)C(F)(F)Cl,TGI,[1],> 10 µM
same,TGI,[2],> 10 µM
same,TGI,[3],> 10 µM
same,TGI,[4],> 10 µM
same,TGI,[5],> 10 µM
same,TGI,[6],> 10 µM
same,TGI,[7],> 10 µM
same,TGI,[8],> 10 µM
same,TGI,[9],> 10 µM
same,TGI,[10],> 10 µM
same,TGI,[11],> 10 µM
same,TGI,[12],> 10 µM
same,TGI,[13],> 10 µM
same,TGI,[14],> 10 µM
same,TGI,[15],> 10 µM
same,TGI,[16],> 10 µM
same,TGI,[17],> 10 µM
same,TGI,[18],> 10 µM
same,TGI,[19],> 10 µM
same,TGI,[20],> 10 µM
same,TGI,[21],> 10 µM
same,TGI,[22],> 10 µM
same,TGI,[23],> 10 µM
same,TGI,[24],> 10 µM
same,TGI,[25],> 10 µM
same,TGI,[26],> 10 µM
same,TGI,[27],> 10 µM
same,TGI,[28],> 10 µM
same,TGI,[29],> 10 µM
same,TGI,[30],> 10 µM
same,TGI,[31],> 10 µM
same,TGI,[32],> 10 µM
same,TGI,[33],> 10 µM
same,TGI,[34],> 10 µM
same,TGI,[35],> 10 µM
same,TGI,[36],> 10 µM
same,TGI,[37],> 10 µM
same,TGI,[38],> 10 µM
same,TGI,[39],> 10 µM
same,TGI,[40],> 10 µM
same,TGI,[41],> 10 µM
same,TGI,[42],> 10 µM
same,TGI,[43],> 10 µM
same,TGI,[44],> 10 µM
same,TGI,[45],> 10 µM
same,TGI,[46],> 10 µM
same,TGI,[47],> 10 µM
same,TGI,[48],> 10 µM
same,TGI,[49],> 10 µM
same,TGI,[50],> 10 µM
same,TGI,[51],> 10 µM
same,TGI,[52],> 10 µM
same,TGI,[53],> 10 µM
same,TGI,[54],> 10 µM
same,TGI,[55],> 10 µM
same,TGI,[56],> 10 µM
same,TGI,[57],> 10 µM
COc1cc(/C=C2\CCC(C)C3=C2N=c2s/c(=C/c4ccc(Cl)cc4)c(=O)n2C3c2cc(OC)c(OC)c(OC)c2)cc(OC)c1OC (stereo not drawn),TGI,[1],> 100 µM
same,TGI,[2],> 100 µM
same,TGI,[3],> 100 µM
same,TGI,[4],> 100 µM
same,TGI,[6],> 100 µM
same,TGI,[7],> 100 µM
same,TGI,[8],> 100 µM
same,TGI,[10],> 100 µM
same,TGI,[11],> 100 µM
same,TGI,[13],> 100 µM
same,TGI,[14],> 100 µM
same,TGI,[15],> 100 µM
same,TGI,[17],> 100 µM
same,TGI,[18],> 100 µM
same,TGI,[58],> 100 µM
same,TGI,[19],> 100 µM
same,TGI,[20],> 100 µM
same,TGI,[21],> 100 µM
same,TGI,[23],> 100 µM
same,TGI,[24],> 100 µM
same,TGI,[25],> 100 µM
same,TGI,[26],> 100 µM
same,TGI,[29],> 100 µM
same,TGI,[30],> 100 µM
same,TGI,[32],> 100 µM
same,TGI,[33],> 100 µM
same,TGI,[34],> 100 µM
same,TGI,[35],> 100 µM
same,TGI,[36],> 100 µM
same,TGI,[37],> 100 µM
same,TGI,[38],> 100 µM
same,TGI,[39],> 100 µM
same,TGI,[41],> 100 µM
same,TGI,[42],> 100 µM
same,TGI,[43],> 100 µM
same,TGI,[44],> 100 µM
same,TGI,[45],> 100 µM
same,TGI,[46],> 100 µM
same,TGI,[47],> 100 µM
same,TGI,[48],> 100 µM
same,TGI,[50],> 100 µM
same,TGI,[52],> 100 µM
same,TGI,[53],> 100 µM
same,TGI,[55],> 100 µM
same,TGI,[56],> 100 µM
same,TGI,[57],> 100 µM
